Results reported in patent publication US6338963B1, “Use of carbon monoxide dependent guanylyl cyclase modifiers to stimulate neuritogenesis” (NeoTherapeutics, Inc., priority 1994, dated 2002).
Marks after values point to notes of the source that are not given here.

Assays:
C57BL/6 mice [1] = assay: Win-shift duration of memory trace, C57BL/6 mice; type: in vivo; details: for Correct (Mean score ± S.E.) / No. above chance/Total #: Physostigmine 0.125 mg/kg
Experimental: (§1) To determine the duration of the memory trace, subjects were administered drug or saline and 30 minutes (PHY) or 1 hour (AIT-082 or THA) later they were given a single reference run with the milk reward in both goal boxes. After the indicated inter-trial delay, subjects were returned to the start box and given the first test trial with the milk reward only in the goal box opposite to the one entered on the previous correct trial. The subjects were given 10 trials with the reward alternating only after correct responses.
Previous work has established that normal adult Swiss Webster mice have a memory trace duration of 60 seconds in the win-shift paradigm which may be increased by the administration of AIT-082.

Swiss Webster mice [2] = assay: Win-shift T-maze memory test, Swiss Webster mice; type: in vivo; details: 90-second inter-trial interval, PHY 0.125 mg/kg i.p.
Experimental: Male Swiss Webster mice six months (young adult) and eleven months (old) of age, obtained from the National Institute on Aging, were maintained in individual cages, on a […] light/dark cycle with continuous access to water. Food was limited so that the mice stabilized at 80% of free feeding weight. Mice were weighed and handled daily for one week. The win-shift model was run as described in the literature and consists of a T-maze in which the correct response alternates after each correct trial. The interval between trials is varied and allows for the determination of the longest period between trials that a subject can remember the correct response on the previous trial. This allows the measure of the duration of the memory trace. […] The reward goal box is alternated after each correct trial. Ten trials per mouse are run each day. […] The latency time to leave the start box is recorded as a measure of motivation, the running time (the time from leaving the start box to reaching the goal box) is recorded as a measure of performance, and the number of correct responses as a measure of memory.
The drugs used in this example are 4-((3-(1,6-dihydro-6-oxo-9-purin-9-yl)-1-oxopropyl)amino) benzoic acid (AIT-082), as an exemplary potassium salt, tacrine hydrochloride (tetrahydroaminoacridine, THA, Sigma Chemical Co., St. Louis, Mo.), and physostigmine, hemisulfate salt (PHY, Sigma Chemical Co., St. Louis, Mo.). The drugs were dissolved in saline and prepared fresh daily. All injections were made at a volume of 0.1 ml/10 grams body weight. When testing drug effects, intraperitoneal (i.p.) injections of AIT-082 or THA were made one hour prior to the start of testing. Due to its shorter duration of action, PHY was injected 30 minutes prior to testing. Control subjects receive a similar injection of saline (vehicle).
as §1
To determine if tolerance to the biological effects of AIT-082 developed, drug or saline was administered daily for 18 days prior to the testing in the standard win-shift paradigm.

C57BL/6 mice [3] = assay: Win-shift test, C57BL/6 mice with age-induced memory deficits; type: in vivo; details: for subjects performing significantly above chance/total number of subjects: PHY 0.125 mg/kg
Experimental: Twelve-month old male C57BL/6 mice were screened for performance in the win-shift foraging test. Subjects were tested at various inter-trial time intervals. Subjects who could not perform to criteria (>60% correct) at 10 seconds delay were classified as having a severe deficit. Subjects who performed to criteria at 10 seconds but not at 30 seconds were classified as having a moderate degree of deficit and subjects who performed to criteria at 30 seconds but not at 60 seconds were classified as having mild deficit. As in Example 21, subjects in each group were treated with either AIT-082 or PHY to determine the extent to which the working memory trace was prolonged. The results are presented in Table M directly below and graphically represented in FIG. 10.

Swiss Webster mice [4] = assay: Win-shift test, Swiss Webster mice with age-induced memory deficits; type: in vivo; details: PHY 0.125 mg/kg
Experimental: Twelve-month old male Swiss Webster mice were screened for performance in the win-shift foraging test. Subjects were tested at various time delays, beginning at 10 seconds and increasing the inter-trial time interval to 30, 60, 90 and 120 seconds.
Subjects with severe impairment could not remember the correct response at 10 seconds while subjects with mild deficit could remember the correct response with a 30 second inter-trial interval but not at 60 seconds. Subjects with a moderate deficit could remember the correct response with a 10 second inter-trial interval but not […] at 30 seconds. Thus, the win-shift model can detect age-induced impairments in working memory. As will be appreciated by those skilled in the art, this observation is important since it provides the ability to use age-matched subjects with varying degrees of impairment for evaluation of potential therapeutic agents.
Following the establishment of a baseline, six subjects in each of the three groups were treated with AIT-82 (30 mg/kg, one hour before testing) or physostigmine (0.125 mg/kg, 30 minutes before testing) using the win-shift foraging test. The results are presented in Table L directly below and graphically represented in FIG. 9.

[5] = tested on: cGMP levels in PC12 cells; assay: cGMP levels in PC12 cells (radioimmunoassay); type: cell-based, rat; details: NGF-primed PC12 cells
Experimental: Initially, PC-12 cells were primed with 40 ng/ml NGF for 3 days in low serum medium (1.5% horse serum+5% fetal calf serum). Cells were seeded onto assay plates in low serum medium containing 40 ng/ml NGF and incubated for 1 hour. The medium was changed to low arginine medium (80 μM) with no serum and NGF and papaverine ([…]) where indicated. Test compounds were added for the indicated time and the reaction was stopped by adding 5% TCA containing 10,000 dpm of ^3H-cGMP. cGMP was assayed by the radioimmunoassay method of Maurice (Mol. Pharmacol. 37: 671-681, 1990). TCA was purified by adding powdered charcoal (5 g) and filtering the mixture through Whatman #1 paper. This removed contaminants in the TCA that otherwise interfere with the radioimmunoassay (RIA) of cGMP.
It was necessary to purify the cGMP from cAMP and other contaminants before radioimmunoassay since these other materials can interfere with the assay. Briefly, the TCA solution was applied to Dowex columns (50W-8X, 200-400 mesh) and eluted. A neutral alumina column was then placed under each Dowex column. The cGMP was eluted from the Dowex columns into neutral alumina columns by adding 4 mL of 0.05 M HCl to each Dowex column. The neutral alumina columns were then sequentially rinsed with 2 ml of HCl, 4 mL water and finally with 0.2 M sodium acetate (pH 6.2). The cGMP collected for the RIA eluted in 1 ML of sodium acetate with a recovery between 50-65%. The cGMP was assayed using a Dupont RIA kit.

S100β protein = S100β protein release from rat cultured astrocytes (ELISA); type: cell-based; details: cycloheximide 0.5 μg/ml, AIT-082 100 μ
Experimental: The S100β protein was measured by using an ELISA as described in A. Aurell et al., “The S-100 Protein in Cerebrospinal Fluid: A Simple ELISA Method,” J.Neurol. Sci. 89: 157-164 (1989).
(§2) The NGF and S100β protein were measured by removing the cultured medium for the ELISA assays at each indicated time point.

NGF = NGF release from rat cultured astrocytes (ELISA); type: cell-based; details: for effect of inhibitor on AIT-082-induced accumulation of NGF: 100 nm wortmannin, 10 μM PD098,059 or 500 ng/ml CHX added 30 min before and kept 24 hours with 100 μM AIT-082
Experimental: The dose response for AIT-082 and guanosine on nerve growth factor and S100β protein release from rat culture astrocytes is shown in FIG. 30. NGF was assayed by a double-site ELISA, using a monoclonal anti-NGF antibody, coupled or not to β-galactosidase according to the method of I. D. Laviada et al., “Phosphatidylcholine-Phospholipase C Mediates the Induction of Nerve Growth Factor in Cultured Glial Cells,” FEBS Lett. 364: 301-304 (1995).
as §2
(§3) NGF and TGFβ2 levels were assayed in the culture medium of the astrocytes by specific ELISA assays using kits from Roche (Germany) and Promega (USA) respectively. NGF basal levels were 56.3±3.2 pg/ml. TGFβ2 levels were 9.1±0.06 pg/ml.
(§4) In FIG. 61, the dose-response curves of NGF and TGFβ2 release from rat cultured astrocytes as the result of exposure to AIT-082 are shown.

TGFβ2 = TGFβ2 release from rat cultured astrocytes (ELISA); type: cell-based; details: 100 nm wortmannin, 10 μM PD098,059 or 500 ng/ml CHX added 30 min before and kept 24 hours with 100 μM AIT-082
Experimental: as §3, §4

[6] = tested on: cultured neurons from rat cerebral cortex; assay: NMDA-induced toxicity in cultured rat cortical neurons, astrocyte conditioned medium; type: cell-based
Experimental: In these experiments, cultured neurons were prepared from rat cerebral cortex. In these cultures the NMDA pulse (100 μM for 10 min) provoked about 80% neuronal death (measured by Trypan blue cell staining or LDH activity). Separately, cultured astrocytes were treated for 6 hours with AIT-082. Then, the medium containing the drug was replaced with fresh medium without the drug and the astrocyte cultures were maintained in this medium for the next 24 hours. This medium represented the CM and was added to neurons soon after the toxic pulse with NMDA. The addition of CM partly counteracted the toxic effects caused by NMDA, reducing the neuronal damage by about 50%. If the medium was boiled for 20 min at 100° C. prior to addition to NMDA-damaged neurons, it completely lost the protective activity. […] To verify whether the neuroprotection caused by AIT-082 was ascribable to the production of TGFβ2 or NGF, antibodies to TGFβ2 or to NGF (100 ng/ml) were added together with CM.
Conversely, when DPCPX (100 nm) was added to astrocyte cultures together with AIT-082, the neuroprotective effect of the resulting CM deriving from the culture of the astrocytes with AIT-082 was reduced by only 20%, as compared to the neuroprotective effect of CM derived from astrocytes exposed to AIT-082 alone (assumed as equal to 100%).

[7] = Moderate deficit, interval 30 sec
[8] = Moderate deficit, interval 60 sec
[9] = Severe deficit, interval <10 sec

physostigmine, hemisulfate salt [reference compound]
Correct (Mean score ± S.E.) (C57BL/6 mice [1]; inter-trial interval 180 sec): 65 ± 16
No. above chance/Total # (C57BL/6 mice [1]; inter-trial interval 180 sec): 3/6
Correct (Mean score ± S.E.) (C57BL/6 mice [1]; inter-trial interval 210 sec): 53 ± 9
No. above chance/Total # (C57BL/6 mice [1]; inter-trial interval 210 sec): 1/6
duration of the memory trace (C57BL/6 mice [1]; physostigmine, untreated 120 seconds): 180 s
Win-shift Memory Test, Correct responses (Swiss Webster mice [2]): 6.5 Correct responses/10 trials
subjects performing significantly above chance/total number of subjects (C57BL/6 mice [3]; Mild deficit, interval 60 sec): 7/8*
subjects performing significantly above chance/total number of subjects (C57BL/6 mice [3]; Mild deficit, interval 90 sec): 3/8
subjects performing significantly above chance/total number of subjects (C57BL/6 mice [3]; Mild deficit, interval 120 sec): 2/8
subjects performing significantly above chance/total number of subjects (C57BL/6 mice [3]; Mild deficit, interval 150 sec): 2/8
subjects performing significantly above chance/total number of subjects (C57BL/6 mice [3]; Mild deficit, interval 180 sec): 2/8
subjects performing significantly above chance/total number of subjects (C57BL/6 mice [3]; Mild deficit, interval 210 sec): 0/8
subjects performing significantly above chance/total number of subjects (C57BL/6 mice [3]; Moderate deficit, interval 10 sec): 6/6
subjects performing significantly above chance/total number of subjects (C57BL/6 mice [3]; [7]): 1/6
subjects performing significantly above chance/total number of subjects (C57BL/6 mice [3]; [8]): 0/6
subjects performing significantly above chance/total number of subjects (C57BL/6 mice [3]; [9]): 0/6
prolongation of memory (C57BL/6 mice [3]; moderate deficit group, PHY): ineffective in the moderate group
subjects performing significantly above chance/total number of subjects (Swiss Webster mice [4]; Mild deficit, interval 60 sec): 5/6*
subjects performing significantly above chance/total number of subjects (Swiss Webster mice [4]; Mild deficit, interval 90 sec): 3/6
subjects performing significantly above chance/total number of subjects (Swiss Webster mice [4]; Mild deficit, interval 120 sec): 2/6
subjects performing significantly above chance/total number of subjects (Swiss Webster mice [4]; Mild deficit, interval 150 sec): 2/6
subjects performing significantly above chance/total number of subjects (Swiss Webster mice [4]; Mild deficit, interval 180 sec): 1/6
subjects performing significantly above chance/total number of subjects (Swiss Webster mice [4]; Mild deficit, interval 210 sec): 0/6
subjects performing significantly above chance/total number of subjects (Swiss Webster mice [4]; [7]): 1/6
subjects performing significantly above chance/total number of subjects (Swiss Webster mice [4]; [8]): 0/6
subjects performing significantly above chance/total number of subjects (Swiss Webster mice [4]; [9]): 0/6

CNc1ccc2oc(C[C@H]3O[C@@]4(CC[C@H]3C)O[C@H]([C@H](C)C(=O)c3ccc[nH]3)[C@H](C)C[C@H]4C)nc2c1C(=O)O [A23187, reference compound]
cGMP in PC12 cells [5]: failed to elicit an increase in cGMP

C[C@@H]1C[C@@H]([C@H](O)CC2CC(=O)NC(=O)C2)C(=O)[C@@H](C)C1 [cycloheximide, reference compound]
effect of cycloheximide on AIT-082-evoked accumulation of S100β protein (S100β protein): only slightly modified
effect of inhibitor on AIT-082-induced accumulation of NGF (NGF): partly inhibited
effect of cycloheximide on AIT-082-evoked release of NGF (NGF; cycloheximide 0.5 μg/ml, AIT-082 100 μ): abolished the stimulatory effect of AIT-082
effect of inhibitor on AIT-082-induced accumulation of TGFβ2 (TGFβ2): partly inhibited

COc1cccc(-c2cc(=O)c3ccccc3o2)c1N [PD098,059, reference compound]
effect of inhibitor on AIT-082-induced accumulation of NGF (NGF): partly inhibited
effect of inhibitor on AIT-082-induced accumulation of TGFβ2 (TGFβ2): partly inhibited

CCCn1c(=O)c2[nH]c(C3CCCC3)nc2n(CCC)c1=O [DPCPX, 8-cyclopentyl-1,3-dipropylxanthine]
reduction of neuroprotective effect of resulting CM ([6]; DPCPX 100 nm added to astrocyte cultures together with AIT-082): 20%
effect on neuroprotective effect of astrocyte-derived CM ([6]; DPCPX 100 nm added with CM to injured cortical neurons): did not modify the neuroprotective effect
